The results in this text go back to patent publication US12491176B2, “Methods, compositions, kits and uses thereof targeting and/or treating VRK2 to enhance effectiveness of immune checkpoint inhibitor(s)” (THE TRUSTEES OF COLUMBIA UNIVERSITY IN THE CITY OF NEW YORK, priority 2021, dated 2025).

Entries after “also recorded” stand apart in the source; their conditions may differ.

The subject of data set [1] is T cells in tdLN and spleen. As to the kind of experiment: T cell phenotypic analysis by flow cytometry in tdLN and spleen of MC38 tumor mice. The format is in vivo, mouse. The source says:
(§1) One million MC38 or 4T1 cells were used for inoculation, implanted subcutaneously in the right hind flank of mice. Tumor growth was monitored using electronic calipers and calculated according to the formula: V=length×width^2×0.52. For T cell phenotypic analysis by flow cytometry, spleens and inguinal lymph nodes were harvested 17 days post-treatment initiation. Splenic and tdLN cells were stained with anti-mouse antibodies for flow cytometry analysis. To deplete T cells, mice received intraperitoneal injection of 200 μg anti-CD4 (BioXcell BE0003) and 200 μg anti-CD8 (BioXcell BE0061) antibodies in PBS, a second dose of the antibodies was administered two days later. […] Cell viability was measured with PrestoBlue (Invitrogen). […] Prexasertib was given S.C. at 10 mg/kg. All drugs were given for 12 days.
(§2) The MC38 syngeneic mouse tumor model was used to determine whether VRK2 inhibition alone or in combination with PD-1 blockade would improve anti-tumor immune response (see, e.g., FIG. 3A).

For data set [2], the system named is PAK2 S197 phosphorylation. Nature of the data set: Western blot of PAK2 S197 phosphorylation in Jurkat T cells following PD-1 ligation. The format is cell-based, human. As to the method: To determine PAK phosphorylation, 5×10^6 Jurkat T cells were washed with cold PBS and resuspended in complete RPMI. The cells were stimulated for 5 minutes with Dynabeads at 37° C. as indicated above (beads/cells ratio of 3:1). The samples were treated with Calyculin A (CST 99025) at 100 nM for 25 minutes at 37° C., washed once with cold PBS and centrifugation at 500×g and lysed with RIPA buffer supplemented with PhosStop (Roche) for 1 hr at 4° C. Following 10 second sonication and centrifugation at 12,000×g for 10 minutes at 4° C., the samples were blotted using Phospho-PAK1 (Ser199/204)/PAK2 (Ser192/197) antibody (Cell Signaling). Blots were imaged and analyzed using Licor Odyssey.
Therefore, it was sought to validate the in silico predictions in Jurkat T cells with and without pharmacological VRK2 inhibition as well as in shRNA VRK2 knockdown Jurkat T cell line.

The subject of a further data set is MC38 tumor. Nature of the data set: MC38 syngeneic mouse tumor model, tumor growth. In kind it is in vivo.
Description: as §1, §2
Utilizing an immunocompetent syngeneic model, C57BL/6 mice were injected with colon adenocarcinoma cell line MC38 and treated with kinase inhibitors as monotherapy or in combination with a mouse immune checkpoint blocking antibody (clone RMP1.14) for PD-1.

Another data set relates to mouse splenocytes. The conditions noted are these: overnight treatment.
For a further data set, the system named is 4T1 tumor. Nature of the data set: 4T1 mouse breast cancer tumor model in BALB/c mice, tumor growth. The format is in vivo.
Description: as §1

In a further data set the test system is PD-1 signaling. Nature of the data set: In vitro ability of PD-1 to inhibit cytokine secretion with IC-261. The format is cell-based. As to the method:
IL-2, IL-8, and IFN-γ concentrations in the supernatant were measured by enzyme linked immunosorbent assay (ELISA) from BioLegend.
IC-261 (AdooQ®: A15764), a small molecule specific inhibitor of VRK2 was used to evaluate the effect of VRK2 inhibition in tumor growth using mice MC38 syngenetic tumor model. This drug was also used in in vitro experiments where the ability of PD-1 to inhibit cytokine secretion was evaluated.

The test system of a further data set is T cells. Nature of the data set: Toxicity to T cells. In kind it is cell-based.

Turning to `NC(=O)Nc1cc(-c2cccc(F)c2)sc1C(=O)N[C@H]1CCCNC1` [AZD-7762], the “proportion of CD8 T cells in tumor draining lymph nodes (tdLN)” value in data set [1] (combination of AZD-7762 with PD-1 blockade) is on record as “increased proportion of CD8 T cells”. In data set [1] (combination therapy), the “proportion of CD44+PD-1+ T cells in spleen and tdLN” value is given as “elevated proportion”; the “proportion of activated CD44+CD69+ CD4+ and CD8+ T cells in the tdLN” value is reported as “significantly increased proportion”. The “LAG-3+ CD8+ T cells” value in data set [1] (combination therapy, tdLN) is “significantly increased”. Besides, the “PAK2 S197 phosphorylation following PD-1 ligation” value in data set [2] was “fully inhibited”. Further, in the data set with MC38 tumor (AZD-7762 25 mg/kg, PF 10 mg/kg, Prexasertib 10 mg/kg, 12 days), the “MC38 tumor volume compared to Prexasertib (LY2606368) and PF-477,736” value is “marked decrease in MC38 tumor volume”. Moreover, in the data set on MC38 tumor (AZD-7762 in combination treatment with anti-PD-1, MC38 in C57BL/6 mice), the tumor inhibition result is on record as “around 90%”. The “tumor volume compared to vehicle or anti-PD-1 antibody treatment” value with MC38 tumor (AZD-7762 treatment alone, MC38) is recorded as “significantly decreased tumor volume”. In addition, the “anti-tumor activity after CD4+ and CD8+ T cell depletion” value in the data set on MC38 tumor (MC38 model, T cells depleted with anti-CD4 and anti-CD8 antibodies) is recorded as “fully reversed the anti-tumor activity; also recorded: impaired the efficacy”. Further, in the data set on MC38 tumor (combination of AZD-7762 with PD-1 blockade, MC38), the “anti-tumor responses compared to PD-1 blockade alone or AZD-7762 treatment alone” value is recorded as “augmented anti-tumor responses”. In addition, the inhibited tumor growth with MC38 tumor (monotherapy, 25 mg/kg intraperitoneal (I.P.), MC38 in C57BL/6 mice) is around 80%. For the same compound, the “cytotoxicity compared to two other CHK specific inhibitors” value in the data set on mouse splenocytes is “less cytotoxicity”. For the same compound, in the data set with 4T1 tumor (AZD-7762 alone, 4T1 in BALB/c mice (resistant to PD-1 monotherapy)), the “reduction in tumor growth” value is around 30%. Also, in the data set on 4T1 tumor (combination of AZD-7762 and anti-PD-1, 4T1 in BALB/c mice), the “reduction in tumor growth, combination versus AZD-7762 alone” value was “similar”.

Turning to `COc1cc(OC)c(C=C2C(O)=Nc3ccccc32)c(OC)c1` [IC-261], the “effect on PD-1 signaling and function (ability of PD-1 to inhibit cytokine secretion)” value in the data set on PD-1 signaling was “interfere with PD-1 signaling and function”. The “toxicity to T cells” value in the data set with T cells was “not toxic to T cells”. For the same compound, the “inhibition of tumor growth” value in the data set with MC38 tumor (monotherapy, 5 mg/kg, MC38 in C57BL/6 mice) is recorded as “inhibition of tumor growth, like anti-PD-1 dosed as monotherapy”.
